ChEMBL document CHEMBL4825752, “1, 2-Dihexadecanoyl-sn-glycero-3-phosphoethanolamin (DPPE), doxorubicin and folic acid conjugated micelles for cancer management in tumor bearing BALB/c mice” (Bioorg Med Chem Lett, 2021)

What was measured:
[1] = Toxicity in rat heart assessed as haemorrhage by histopathological analysis; type: tissue-based; conditions: in vivo
[2] = Toxicity in rat kidney assessed as tubular necrosis by histopathological analysis; type: tissue-based; conditions: in vivo
[3] = Toxicity in rat kidney assessed as epithelial degeneration by histopathological analysis; type: tissue-based; conditions: in vivo
[4] = Toxicity in rat kidney assessed as tubular degeneration by histopathological analysis; type: tissue-based; conditions: in vivo
[5] = Toxicity in rat kidney assessed as congestion of glomeruli blood vessels by histopathological analysis; type: tissue-based; conditions: in vivo
[6] = Toxicity in tumor bearing BABL/c mouse assessed as median survival time at 5 mg/kg, iv (reference value: 7.5 day); type: organism-based; conditions: in vivo, 180 h
[7] = Toxicity in rat heart assessed as myocardial necrosis by histopathological analysis; type: tissue-based; conditions: in vivo
[8] = Biodistribution in heart of iv dosed tumor bearing BALB/c mouse; type: ADME, organism-based; conditions: in vivo
[9] = Toxicity in rat skeletal muscle assessed as widening of endomysium by histopathological analysis; type: tissue-based, Skeletal muscle tissue; conditions: in vivo
[10] = Biodistribution in liver of iv dosed tumor bearing BALB/c mouse; type: ADME, organism-based; conditions: in vivo
[11] = Toxicity in rat liver assessed as microvesicular steatosis by histopathological analysis; type: tissue-based
[12] = AUC(0 to t) in single iv dosed BALB/c mouse by HPLC analysis; type: ADME, organism-based; conditions: in vivo
[13] = Biodistribution in blood of single iv dosed tumor bearing BALB/c mouse; type: ADME, organism-based; conditions: in vivo
[14] = Mean residence time in single iv dosed BALB/c mouse by HPLC analysis; type: ADME, organism-based; conditions: in vivo
[15] = Toxicity in rat skeletal muscle assessed as infiltration of inflammatory cells by histopathological analysis; type: tissue-based, Skeletal muscle tissue
[16] = Toxicity in rat kidney assessed as glomerular necrosis by histopathological analysis; type: tissue-based; conditions: in vivo
[17] = Toxicity in rat heart assessed as myocardial cell degeneration by histopathological analysis; type: tissue-based
[18] = AUMC(0 to infinity) in single iv dosed BALB/c mouse by HPLC analysis; type: ADME, organism-based; conditions: in vivo
[19] = AUMC(0 to t) in single iv dosed BALB/c mouse by HPLC analysis; type: ADME, organism-based; conditions: in vivo
[20] = AUC(0 to infinity) in single iv dosed BALB/c mouse by HPLC analysis; type: ADME, organism-based; parameters: time infinity, route intravenous; conditions: in vivo
[21] = Biodistribution in kidney of iv dosed tumor bearing BALB/c mouse; type: ADME, organism-based; conditions: in vivo
[22] = Half life in single iv dosed BALB/c mouse by HPLC analysis; type: ADME, organism-based; conditions: in vivo
[23] = Biodistribution in spleen of iv dosed tumor bearing BALB/c mouse; type: ADME, organism-based; conditions: in vivo
[24] = Toxicity in rat liver assessed as hepatocytes degeneration by histopathological analysis

In the case of `COc1cccc2c1C(=O)c1c(O)c3c(c(O)c1C2=O)C[C@@](O)(C(=O)CO)C[C@@H]3O[C@H]1C[C@H](N)[C@H](O)[C@H](C)O1` [DOXORUBICIN], the Activity [1] is reported as “Toxic”, the Activity [2] is reported as “Toxic” and the Activity [3] is reported as “Toxic”. For the same compound, the Activity [4] was “Toxic”, the Activity [5] was “Toxic” and the Activity [6] was “Non-Toxic”. The MST [6] was 40 days, the Activity [7] was “Toxic” and the Drug uptake [8] was “Active”. The Activity [9] was “Toxic”, the Drug uptake [10] was “Active” and the Activity [11] was “Toxic”. For the same compound, the AUC(0-t) [12] was 11400 ng·h/mL, the Drug uptake [13] was “Active” and the MRT [14] was 3.1 h. For the same compound, the Activity [15] was “Toxic”, the Activity [16] was “Toxic” and the Activity [17] was “Toxic”. For the same compound, the AUMC [18] was 30.25 ug/ml.hr^2, the AUMCt [19] was 29.45 ug/ml.hr^2 and the AUC(0-inf) [20] was 10400 ng·h/mL. The Drug uptake [21] was “Active”, the t1/2 [22] was 2.09 h and the Drug uptake [23] was “Active”. The Activity [24] was “Toxic”.
